In patent US11109593B2, “Isoxazolin-5-one derivative and herbicide containing same as active ingredient” (HOKKO CHEMICAL INDUSTRY CO., LTD., priority 2017, dated 2021):

Assays:
Type in all cases: in vivo
[1] = test system: Echinochloa crus-galli; test: Test Example 1: herbicidal effect test by treatment of rice paddy soil (immediately after seeding); settings: 120 g/10a active ingredient, dry weight vs untreated area, 14 days after treatment
How it was run: (§1)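 Pre-emergence paddy water application, 120 g a.i./10 ares, applied immediately post-seeding into ~3 cm flood; glasshouse; duplicate pots; dry weight at 14 d → % inhibition = (1 − treated/untreated) × 100.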

[2] = test system: Scirpus juncoides; test: as above; settings: 120 g/10a active ingredient, dry weight vs untreated area, 14 days after treatment
How it was run: as §1

[3] = test system: broad leaf weeds (Lindernia pyxidaria and Monochoria vaginalis); test: as above; settings: 120 g/10a active ingredient, dry weight vs untreated area, 14 days after treatment
How it was run: as §1

[4] = test system: Echinochloa crus-galli; test: Test Example 2: herbicidal effect test by treatment during growing period in paddy rice cultivation (seven days after seeding); settings: 120 g/10a active ingredient, assessed 14 days after treatment, dry weight vs untreated area
How it was run: (§2)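 Post-emergence paddy water application: compounds were formulated as emulsions, diluted and dropped into flooded pots seven days after sowing at a rate equivalent to 120 g per 10 ares. Efficacy was taken as dry-weight reduction relative to untreated controls after 14 days.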

[5] = test system: Scirpus juncoides; test: as above; settings: 120 g/10a active ingredient, assessed 14 days after treatment, dry weight vs untreated area
How it was run: as §2

[6] = test system: broad leaf weeds (Lindernia pyxidaria and Monochoria vaginalis); test: as above; settings: 120 g/10a active ingredient, assessed 14 days after treatment, dry weight vs untreated area
How it was run: as §2

[7] = test system: Amaranthus viridis; test: Test Example 3: herbicidal effect test by treatment of dry field farming soil (one day after seeding); settings: 120 g/10a active ingredient, evaluated 14 days after treatment
How it was run: (§3)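 Dry-field alluvium pots; weed seeds incorporated in top 1 cm; soil spray of diluted emulsion 1 d after seeding, 120 g a.i./10 a in 100 L/10 a. Readout: % reduction of dry weight vs untreated, day 14, duplicates.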

[8] = test system: Chenopodium album; test: as above; settings: 120 g/10a active ingredient, evaluated 14 days after treatment
How it was run: as §3

[9] = test system: Echinochloa crus-galli; test: as above; settings: 120 g/10a active ingredient, evaluated 14 days after treatment
How it was run: as §3

[10] = test system: southern crabgrass; test: as above; settings: 120 g/10a active ingredient, evaluated 14 days after treatment
How it was run: as §3

[11] = test system: Amaranthus viridis; test: Test Example 4: herbicidal effect test by treatment of leave and stem in dry field farming (seven days after seeding); settings: 120 g/10a active ingredient; emulsion sprayed seven days after seeding; evaluated 14 days after treatment
How it was run: (§4)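 Duplicate pots were scored 14 days post-spray by dry weight, herbicidal rate = {1 − treated/untreated average dry weight} × 100. The water-diluted emulsion, equivalent to 120 g active ingredient per 10 ares in 100 L, was applied seven days after sowing 20 seeds each into the upper 1 cm of alluvial soil.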

[12] = test system: Chenopodium album; test: as above; settings: 120 g/10a active ingredient; emulsion sprayed seven days after seeding; evaluated 14 days after treatment
How it was run: as §4

[13] = test system: Echinochloa crus-galli; test: as above; settings: 120 g/10a active ingredient; emulsion sprayed seven days after seeding; evaluated 14 days after treatment
How it was run: as §4

[14] = test system: southern crabgrass; test: as above; settings: 120 g/10a active ingredient; emulsion sprayed seven days after seeding; evaluated 14 days after treatment
How it was run: as §4

Row | Compound | Herbicidal rate (%) Echinochloa crus-galli [1] [%] | Herbicidal rate (%) Scirpus juncoides [2] [%] | Herbicidal rate (%) Lindernia pyxidaria [3] [%] | Herbicidal rate (%) Monochoria vaginalis [3] [%] | Herbicidal rate (%) Echinochloa crus-galli [4] [%] | Herbicidal rate (%) Scirpus juncoides [5] [%] | Herbicidal rate (%) Lindernia pyxidaria [6] [%] | Herbicidal rate (%) Monochoria vaginalis [6] [%] | herbicidal rate, Amaranthus viridis [7] [%] | herbicidal rate, Chenopodium album [8] [%] | herbicidal rate, Echinochloa crus-galli [9] [%] | herbicidal rate, southern crabgrass [10] [%] | herbicidal effect (herbicidal rate), Amaranthus viridis [11] [%] | herbicidal effect (herbicidal rate), Chenopodium album [12] [%] | herbicidal effect (herbicidal rate), Echinochloa crus-galli [13] [%] | herbicidal effect (herbicidal rate), southern crabgrass [14] [%]
1 | Cc1c(Cc2cc(F)ccc2N(S(=O)(=O)C(F)(F)F)S(=O)(=O)C(F)(F)F)c(=O)on1CC(C)C [Compound 1-29] | 100 | 90 | 90 | 90 | 100 | 90 | 80 | 90 | 40 | 40 | 70 | 70 | 60 | 0 | 60 | 40
2 | Cc1c(Cc2ccccc2N(C(=O)CC(C)C)S(=O)(=O)C(F)(F)F)c(=O)on1CC(C)(C)C [Compound 1-355] | 90 | 90 | 90 | 90 | 90 | 90 | 90 | 90 | 90 | 90 | 90 | 90 | 40 | 40 | 90 | 90
3 | Cc1c(Cc2ccccc2N(S(=O)(=O)C(F)(F)F)S(=O)(=O)C(F)(F)F)c(=O)on1C(C)C1CC1 (stereo not shown) [Compound 1-992] | 100 | 100 | 90 | 100 | 90 | 80 | 50 | 90 | 40 | 40 | 90 | 90 | 40 | 40 | 90 | 50
4 | CCC(C)n1oc(=O)c(Cc2ccccc2N(C(=O)c2ccccc2)S(=O)(=O)C(F)(F)F)c1C (stereo not shown) [Compound 1-474] | 90 | 90 | 90 | 90 | 90 | 90 | 90 | 90 | 90 | 90 | 90 | 90 | 40 | 40 | 90 | 90
5 | CCC(C)CCn1oc(=O)c(Cc2ccccc2NS(=O)(=O)C(F)(F)F)c1C (stereo not shown) [Compound 1-124] | 100 | 90 | 90 | 90 | 90 | 80 | 60 | 70 | 40 | 50 | 100 | 80 | 40 | 40 | 70 | 60
6 | CCOC(=O)N(c1ccccc1Cc1c(C)n(C(C)COC)oc1=O)S(=O)(=O)C(F)(F)F (stereo not shown) [Compound 1-615] | 90 | 90 | 90 | 90 | 90 | 90 | 90 | 90 | 90 | 90 | 90 | 90 | 40 | 40 | 90 | 90
7 | CCOC(=O)N(c1ccccc1Cc1c(C)n(CC(C)CC)oc1=O)S(=O)(=O)C(F)(F)F (stereo not shown) [Compound 1-611] | 100 | 90 | 90 | 80 | 100 | 90 | 70 | 80 | 40 | 40 | 70 | 70 | 60 | 50 | 80 | 70
8 | C=CCOC(=O)N(c1ccccc1Cc1c(C)n(C(C)CC)oc1=O)S(=O)(=O)C(F)(F)F (stereo not shown) [Compound 1-706] | 90 | 90 | 90 | 90 | 90 | 90 | 90 | 90 | 90 | 90 | 90 | 90 | 40 | 40 | 90 | 90
9 | CCCC(C)n1oc(=O)c(Cc2ccccc2N(C(=O)C(C)C)S(=O)(=O)C(F)(F)F)c1C (stereo not shown) [Compound 1-334] | 100 | 90 | 70 | 80 | 100 | 90 | 70 | 70 | 50 | 40 | 90 | 70 | 60 | 60 | 90 | 90
10 | COC(=O)N(c1ccccc1Cc1c(C)n(CCSC)oc1=O)S(=O)(=O)C(F)(F)F [Compound 1-592] | 90 | 90 | 90 | 90 | 90 | 90 | 90 | 90 | 90 | 90 | 90 | 90 | 40 | 40 | 90 | 90
